{"source": "paper PMC2981624", "about": "(Chemical research in toxicology, 2010)", "key": {"[1]": {"tested_on": "Salmonella typhimurium strain TA98", "settings": "for concentration dependence of mutagenicity (revertants/plate): 0.1-100 μM"}, "[2]": {"tested_on": "Salmonella typhimurium strain TA100", "settings": "cited from earlier work"}, "[3]": {"tested_on": "Salmonella typhimurium strain TA98", "settings": "cited from earlier work"}, "[4]": {"tested_on": "Salmonella typhimurium strain TA100", "settings": "10 and 100 μM (Figure 1)"}, "[5]": {"tested_on": "primary normal human lung cells", "settings": "0.1 to 10 μM; cited from earlier work"}, "lung adenoma": {"tested_on": "lung adenoma", "settings": "cited from earlier work"}, "[6]": {"settings": "10 μM, 50 pmol 1A1 Supersomes, presence of NADPH"}, "[7]": {"settings": "10 μM, 50 pmol recombinant 2A13, presence of NADPH"}, "[8]": {"settings": "0.5 mg human lung microsomes, presence of NADPH"}, "[9]": {"settings": "0.5 mg human lung microsomes, presence of NADPH, equal concentrations"}, "[10]": {"settings": "2 mg rat liver S9, presence of NADPH"}}, "note": "Entries after “also recorded” stand apart in the source; their conditions may differ. Read-outs that look alike come from different tables or passages of the source.", "data": [{"compound": "Cc1c[nH]c2ccccc12", "note": "[3MI, 3-methylindole]", "values": [{"measurement": "mutagenicity (revertants/plate)", "setting": "[1]; [6]", "value": "statistically significant increases in mutagenicity"}, {"measurement": "mutagenicity (number of mutants)", "setting": "[1]; 10 μM, 50 pmol purified 2F3, presence of NADPH", "value": "significant increase in the number of mutants"}, {"measurement": "mutagenicity (revertants/plate)", "setting": "[1]; [7]", "value": "statistically significant increases in the number of revertants per plate; also recorded: highest levels of mutagenicity"}, {"measurement": "cytotoxicity to bacteria (density of background lawn)", "setting": "[1]; 100 μM, 0.5 mg human lung microsomes", "value": "cytotoxic"}, {"measurement": "concentration dependence of mutagenicity (revertants/plate)", "setting": "[1]; [8]", "value": "increasing mutagenicity up through the 10 μM concentration, but lower revertants/plate with the highest concentration (100 μM)"}, {"measurement": "mutagenicity compared to BaP", "setting": "[1]; [9]", "value": "more mutagenic than BaP was at the 1.0 μM (p=0.006) and 10 μM (p=0.005) concentrations, although not at the 0.1 μM (p=0.1) or 100 μM (p=0.9) concentrations"}, {"measurement": "mutagenicity compared to NNK", "setting": "[1]; [9]", "value": "significantly more mutagenic than NNK was at the 0.1 μM (p=0.05), 1.0 μM (p=0.002), and 10 μM (p=0.007) concentrations, although not at the 100 μM (p=0.8) concentration"}, {"measurement": "mutagenicity (revertants/plate)", "setting": "[1]; 2 mg human liver S9, presence of NADPH", "value": "Neither incubation of 3MI with Salmonella typhimurium strain TA98 and 2 mg human liver S9, or 2 mg rat liver S9 was mutagenic; also recorded: failed to produce 3MI-mediated mutagenesis"}, {"measurement": "mutagenicity (revertants/plate)", "setting": "[1]; [10]", "value": "Neither incubation of 3MI with Salmonella typhimurium strain TA98 and 2 mg human liver S9, or 2 mg rat liver S9 was mutagenic; also recorded: failed to produce 3MI-mediated mutagenesis"}, {"measurement": "mutagenicity", "setting": "[2]; rat liver S9", "value": "not mutagenic"}, {"measurement": "mutagenicity", "setting": "[3]; purified CYP2F3", "value": "mutagenic"}, {"measurement": "mutagenicity", "setting": "[3]; rat liver S9 fractions", "value": "not mutagenic"}, {"measurement": "mutagenicity (revertants/plate)", "setting": "[4]; [8]", "value": "failed to increase mutagenesis at any concentration"}, {"measurement": "mutagenicity (revertants/plate)", "setting": "[4]; [10]", "value": "failed to increase mutagenesis at any concentration"}, {"measurement": "induction of markers of carcinogenesis", "setting": "[5]", "value": "induce markers of carcinogenesis, including DNA damage and p53 nuclear localization"}]}, {"compound": "COc1c2occc2cc2ccc(=O)oc12", "note": "[8-MOP, 8-methoxypsoralen]", "values": [{"measurement": "chemopreventive effect", "setting": "lung adenoma", "value": "chemopreventive effect"}]}, {"compound": "Nn1nnc2ccccc21", "note": "[ABT, 1-aminobenzotriazole, reference compound]", "values": [{"measurement": "mutagenicity of inhibitor alone", "setting": "[1]; 0.5 mM ABT alone, 0.5 mg human lung microsomes", "value": "did not prove to be mutagenic"}, {"measurement": "effect on 3MI-mediated mutagenesis", "setting": "[1]; 0.5 mM ABT with 100 μM 3MI, 0.5 mg human lung microsomes, presence of NADPH", "value": "completely inhibited the mutagenesis"}, {"measurement": "effect on B(a)P-mediated mutagenesis", "setting": "[1]; 0.5 mM ABT with 100 μM B(a)P, 0.5 mg human lung microsomes, presence of NADPH", "value": "completely inhibited the mutagenesis"}, {"measurement": "effect on NNK-mediated mutagenesis", "setting": "[1]; 0.5 mM ABT with 100 μM NNK, 0.5 mg human lung microsomes, presence of NADPH", "value": "completely inhibited the mutagenesis"}]}, {"compound": "CN(CCCC(=O)c1cccnc1)N=O", "note": "[NNK, 4-(methylnitrosamino)-1-(3-pyridyl)-1-butanone, reference compound]", "values": [{"measurement": "mutagenicity (revertants/plate)", "setting": "[1]; [6]", "value": "did not result in an increased number of revertants"}, {"measurement": "mutagenicity (revertants/plate)", "setting": "[1]; [7]", "value": "statistically significant increases in the number of revertants per plate"}, {"measurement": "concentration dependence of mutagenicity (revertants/plate)", "setting": "[1]; [8]", "value": "mutagenicity increased in a concentration-dependent manner up through the 100 μM concentration"}, {"measurement": "base pair substitution mutations", "setting": "[2]", "value": "does not cause base pair substitution mutations"}, {"measurement": "mutagenicity (revertants/plate)", "setting": "[4]; [8]", "value": "failed to increase mutagenesis at any concentration"}, {"measurement": "mutagenicity (revertants/plate)", "setting": "[4]; [10]", "value": "failed to increase mutagenesis at any concentration"}]}]}
